The values that follow come from patent US8372621B2, “Methods and materials for the production of shikimic acid” (priority 2003, dated 2013).

The test system of series [1] is chimeric KDPGal aldolase (DgoA) variant NR8.165-2 (family shuffling of EC03-1, KP03-3 and ST04-5), GST fusion protein. In words: DAHP formation kinetics, family-shuffled variant NR8.165-2 (Table 10). Format: biochemical, chimera of E. coli, K. pneumoniae and S. typhimurium. Here is the method:
(§1) Enzyme activity is measured by following the formation of 3-dehydroshikimic acid (DHS) over time when DHQ synthase (3-dehydroquinate synthase, E.C. 4.2.3.4) and DHQ dehydratase (E.C. 4.2.1.10) are utilized as coupling enzymes. DHQ synthase is prepared as described in Frost, J. W. et al., Biochemistry, 1984, 23, 4470-75; DHQ dehydratase is purified from E. coli AB2848/pKD201 The reaction (1 mL) contains 50 mM morpholinepropanesulfonic acid (MOPS) buffer (pH 7.5), 1 mM D-erythrose 4-phosphate, 1 mM pyruvate, 50 μM CoCl2, 10 μM NAD, 1 U of DHQ synthase, 1 U of DHQ dehydratase and cellular lysate. The reaction is initiated by addition of diluted cellular lysate to the assay solution, and the absorbance at 234 nm monitored continuously for 5 min. One unit of evolved enzyme activity is defined by the formation of one μmol of DHS per minute.
(§2) The the dgoA mutants, EC03-1, KP03-3 and ST04-5, were subjected to DNA family shuffling using the single-stranded DNA shuffling method developed by Zhao and coworkers: Zha, W; Zhu, T; Zhao, H., Methods Mol. Biol. 2003, 231, 91-97. […] The dgoA gene hybrids from the five largest colonies that appeared after 2.5 days were sequenced and their encoding KDPGal aldolase activities toward DAHP formation were determined as shown in Table 9.

Series [2] concerns chimeric KDPGal aldolase (DgoA) variant NR8.165-4 (family shuffling of EC03-1, KP03-3 and ST04-5), GST fusion protein. In words: DAHP formation kinetics, family-shuffled variant NR8.165-4 (Table 10). Format: biochemical, chimera of E. coli, K. pneumoniae and S. typhimurium. The method, then: as §1, §2
For series [3], the system named is chimeric KDPGal aldolase (DgoA) variant NR8.165-6 (family shuffling of EC03-1, KP03-3 and ST04-5), GST fusion protein. In words: DAHP formation kinetics, family-shuffled variant NR8.165-6 (Table 10). Format: biochemical, chimera of E. coli, K. pneumoniae and S. typhimurium. Here is the method:
as §1, §2

Series [4] deals with S. typhimurium KDPGal aldolase (DgoA) variant ST04-5 (D20E, V28M, S42T, I89T, P150L, D178G; parent SEQ ID NO:6), GST fusion protein (Salmonella enterica, UniProt A0A0H3NU26, D178G/D20E/I89T/P150L/S42T/V28M). In words: DAHP formation kinetics, evolved variant ST04-5 (Table 10). The settings on record: purified as GST fusion protein. Format: biochemical. The method, then: as §1, with “The reaction is initiated by addition of diluted cellular lysate to the assay solution, and the absorbance at 234 nm monitored continuously for 5 min.” left out
Sequence of S. typhimurium KDPGal aldolase (DgoA) variant ST04-5 (D20E, V28M, S42T, I89T, P150L, D178G; parent SEQ ID NO:6), GST fusion protein (A0A0H3NU26 whole entry D178G/D20E/I89T/P150L/S42T/V28M, the tested form may be a part): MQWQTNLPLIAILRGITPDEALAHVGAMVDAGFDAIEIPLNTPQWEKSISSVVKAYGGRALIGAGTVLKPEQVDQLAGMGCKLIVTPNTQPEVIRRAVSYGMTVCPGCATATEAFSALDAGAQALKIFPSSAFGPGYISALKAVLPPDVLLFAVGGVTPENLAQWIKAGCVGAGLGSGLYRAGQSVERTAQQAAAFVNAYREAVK

Series [5] deals with E. coli native DAHP synthase AroG. The settings on record: Sheflyan et al. 1998, cited from earlier work.
In series [6] the test system is E. coli native DAHP synthase AroH. To be noted: Akowski & Bauerle 1997, cited from earlier work.
The test system of series [7] is E. coli native DAHP synthase AroF. The settings on record: Ramilo & Evans 1997, cited from earlier work.
Series [8] concerns O=C[C@H](O)[C@H](O)COP(=O)(O)O. In words: DAHP formation kinetics, wild-type K. pneumoniae KDPGal aldolase (Table 10). Format: biochemical, Klebsiella pneumoniae. The settings on record: other: purified as GST fusion protein; pH 7.5. Here is the method:
as §1

Series [9] relates to O=C[C@H](O)[C@H](O)COP(=O)(O)O. In words: DAHP formation kinetics, evolved variant ST04-5 (Table 10). The settings on record: other: purified as GST fusion protein; pH 7.5. Format: biochemical, Salmonella typhimurium. Here is the method: as §1, with “The reaction is initiated by addition of diluted cellular lysate to the assay solution, and the absorbance at 234 nm monitored continuously for 5 min.” left out

Series [10] deals with O=C[C@H](O)[C@H](O)COP(=O)(O)O. In words: DAHP formation kinetics, wild-type S. typhimurium KDPGal aldolase (Table 10). Format: biochemical, Salmonella typhimurium. To be noted: other: purified as GST fusion protein; pH 7.5. The method, then:
as §1

Substrate in series [11]: O=C[C@H](O)[C@H](O)COP(=O)(O)O
In words: DAHP formation kinetics, evolved variant EC03-1 (Table 10). Format: biochemical, Escherichia coli. To be noted: other: purified as GST fusion protein; pH 7.5. Here is the method:
as §1, with “1 U of DHQ dehydratase and cellular lysate. The reaction is initiated by addition of diluted cellular lysate to the assay solution, and the absorbance at 234 nm monitored continuously for 5 min.” left out

Substrate in series [12]: O=C[C@H](O)[C@H](O)COP(=O)(O)O
In words: DAHP formation kinetics, wild-type E. coli KDPGal aldolase (Table 10). The settings on record: other: purified as GST fusion protein; pH 7.5. Format: biochemical, Escherichia coli. Here is the method:
as §1, with “1 U of DHQ dehydratase and cellular lysate. The reaction is initiated by addition of diluted cellular lysate to the assay solution, and the absorbance at 234 nm monitored continuously for 5 min.” left out

Setting [13] is: purified as GST fusion protein, read-out: Km (E4P).
The mark [14] stands for this setting: relative to parent enzymes EC03-1 and ST04-5.
Setting [15] is: compared with the wild-type E. coli KDPGal aldolase.
Where [16] appears, read: read-out: Km for D-erythrose 4-phosphate.

Usually kcat stands for the number of substrate molecules converted per active site and unit of time at saturation. In general, kcat/Km refers to the turnover number divided by the Michaelis constant. In general, Km refers to the concentration of substrate that gives half-maximal velocity. As for `O=C[C@H](O)[C@H](O)COP(=O)(O)O` [E4P, D-erythrose 4-phosphate], the turnover number (kcat) in [1] (purified as GST fusion protein) is 2.51 s⁻¹; in series [2] (purified as GST fusion protein), 4.76 s⁻¹; in series [3] (purified as GST fusion protein) it was 0.504 s⁻¹; in series [4], 3.24 s⁻¹; in series [5] it was 10.3 s⁻¹; in [6] it was 20.6 s⁻¹. For the same molecule, the turnover number (kcat) in series [7] is 29.5 s⁻¹. The kcat/Km in [1] (purified as GST fusion protein) was 16000 M⁻¹ s⁻¹; in series [2] (purified as GST fusion protein), 41400 M⁻¹ s⁻¹; in [3] (purified as GST fusion protein), 6300 M⁻¹ s⁻¹; in series [4] it was 27200 M⁻¹ s⁻¹. The Km is 157 µM in series [1] (setting [13]); 115 µM in series [2] (setting [13]); 80 µM in [3] (setting [13]); 141 µM in series [5] (setting [16]); 35 µM in series [6] (setting [16]); 81.4 µM in series [7] (setting [16]). In addition, the “kcat/Km relative to parent enzymes” value in [1] (setting [14]) and in [3] (setting [14]) was “decrease in kcat/Km values relative to their parent enzymes” each time. This molecule also gave an increase in kcat in series [2] (setting [15]) of 5 fold. For the same molecule, the “increase in kcat/Km” value in series [2] (setting [15]) is reported as 25 fold. Moreover, the “reduction in Km for D-erythrose 4-phosphate” value in series [2] (setting [15]) came out at 5 fold.

As for “Klebsiella pneumoniae KDPGal aldolase (DgoA), wild type, SEQ ID NO:4, GST fusion protein (Klebsiella pneumoniae subsp. pneumoniae MGH 78578)”, in [8], the Km came out at 1507 µM.

Consider “S. typhimurium KDPGal aldolase (DgoA) variant ST04-5 (D20E, V28M, S42T, I89T, P150L, D178G; parent SEQ ID NO:6), GST fusion protein (Salmonella enterica subsp. enterica serovar Typhimurium str. SL1344; D178G/D20E/I89T/P150L/S42T/V28M)”, for which the Km in series [9] amounted to 119 µM.

Consider “Salmonella typhimurium KDPGal aldolase (DgoA), wild type, SEQ ID NO:6, GST fusion protein (Salmonella enterica subsp. enterica serovar Typhimurium str. SL1344)”, for which the Michaelis constant (Km) in series [10] was 685 µM.

B1: E. coli KDPGal aldolase (DgoA) variant EC03-1 (F33I, D58N, Q72H, A75V, V85A, V154F; parent SEQ ID NO:2), GST fusion protein (Escherichia coli K-12; … (protein)
chain: MQWQTKLPLIAILRGITPDEALAHVGAVIDAGIDAVEIPLNSPQWEQSIPAIVDAYGNKALIGAGTVLKPEHVDVLARMGCQLIATPNIHSEVIRRAVGYGMTVCPGCATATEAFTALEAGAQALKIFPSSAFGPQYIKALKAVLPSDIAVFAFGGVTPENLAQWIDAGCAGAGLGSDLYRAGQSVERTAQQAAAFVKAYREAVQ
For the molecule B1, in series [11], the Michaelis constant (Km) amounted to 124 µM, the turnover number (kcat) is 2.49 s⁻¹ and the kcat/Km stood at 20100 M⁻¹ s⁻¹.

B2: Escherichia coli KDPGal aldolase (DgoA), wild type, SEQ ID NO:2, GST fusion protein (Escherichia coli K-12) (protein)
chain: MQWQTKLPLIAILRGITPDEALAHVGAVIDAGFDAVEIPLNSPQWEQSIPAIVDAYGDKALIGAGTVLKPEQVDALARMGCQLIVTPNIHSEVIRRAVGYGMTVCPGCATATEAFTALEAGAQALKIFPSSAFGPQYIKALKAVLPSDIAVFAVGGVTPENLAQWIDAGCAGAGLGSDLYRAGQSVERTAQQAAAFVKAYREAVQ
In the case of B2, in series [12], the Km stood at 571 µM, the catalytic constant (kcat) was found to be 0.94 s⁻¹ and the specificity constant (kcat/Km) turned out to be 1650 M⁻¹ s⁻¹.
